Assays:
human mu receptor = human mu receptor (Homo sapiens, UniProt P35372); assay: Human mu receptor binding (IC50, Ki)
[1] = Chemical hydrolysis / aqueous stability in PBS at pH 1.2, 6 and 8, 37° C., HPLC; details: 1 mg/mL
Experimental: (§1) PBS solutions at various pHs (1.2, 6 and 8) were prepared by adjusting 60-mL volumes of PBS maintained at 37° C. with a dropwise addition of concentrated phosphoric acid and/or 0.01 N NaOH, and monitoring with a pH meter calibrated between pH 4 and 7. […] A 50 μL sample was taken for the t=0 time point. The remaining solution was then divided into five aliquots (175 μL each) in microcentrifuge vials labeled according to sampling time-points. Air-tight sealed vials were then incubated at 37° C. in a temperature-controlled water bath. At each time-point, the appropriate vial was removed from the water bath, and a 50 μL sample drawn for HPLC analysis.

[2] = Solubility in PBS at pH 8; details: for Solubility in PBS at pH 8: PBS pH 8, 37° C., levorphanol free base by sonication; for solubility: PBS, 37 °C, pH 8, aqueous buffer, thermodynamic from solid
Experimental: as §1

[3] = biological target: alkaline phosphatase (EC 3.1.3.1) (Bos taurus, UniProt P19111); assay: Enzymatic hydrolysis by alkaline phosphatase at pH 8, 37° C., HPLC
Experimental: Alkaline Phosphatase (400 units) was added to 10 mL of Alkaline Phosphatase Stabilizing Buffer (APSB; Sigma-Aldrich Catalog #A4955) maintained at 37° C. Solution pH was verified by dropping 25 μL of solution onto calibrated Color-pHast Indicator Strips (pH 2-9, Darmstadt, Germany) and checking the color against the calibration scale. […] At each sampling time point, a 200-μL aliquot was drawn into labeled micro centrifuge tubes, each containing 50 μL of Alkaline Phosphatase Stop Solution (APSS; Sigma-Aldrich Catalog #A5852). Acetonitrile (400 μL) was added to each micro centrifuge tube, vortexed briefly, and centrifuged at 12,000 rpm for 5 min. An aliquot (200 μL) of resulting supernatant was removed from each tube, being careful not to disturb the enzyme pellet at the bottom and transferred to HPLC vials containing low volume inserts.

Sequence of alkaline phosphatase (EC 3.1.3.1) (P19111 20-506 limits assumed): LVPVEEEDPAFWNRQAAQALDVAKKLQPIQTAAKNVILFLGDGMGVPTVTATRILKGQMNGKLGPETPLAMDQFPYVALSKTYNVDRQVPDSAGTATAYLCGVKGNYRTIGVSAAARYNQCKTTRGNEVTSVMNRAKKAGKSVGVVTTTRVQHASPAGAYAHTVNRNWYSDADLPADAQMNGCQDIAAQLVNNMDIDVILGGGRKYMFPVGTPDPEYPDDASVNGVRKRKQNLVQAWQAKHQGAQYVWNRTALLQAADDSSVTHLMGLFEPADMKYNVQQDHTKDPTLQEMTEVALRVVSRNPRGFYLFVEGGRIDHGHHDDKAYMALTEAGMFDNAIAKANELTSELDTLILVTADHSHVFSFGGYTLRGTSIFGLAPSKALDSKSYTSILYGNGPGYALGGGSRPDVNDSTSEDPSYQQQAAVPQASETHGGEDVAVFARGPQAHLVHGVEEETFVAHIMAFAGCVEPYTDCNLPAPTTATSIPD
Sequence of human mu receptor (P35372 whole entry): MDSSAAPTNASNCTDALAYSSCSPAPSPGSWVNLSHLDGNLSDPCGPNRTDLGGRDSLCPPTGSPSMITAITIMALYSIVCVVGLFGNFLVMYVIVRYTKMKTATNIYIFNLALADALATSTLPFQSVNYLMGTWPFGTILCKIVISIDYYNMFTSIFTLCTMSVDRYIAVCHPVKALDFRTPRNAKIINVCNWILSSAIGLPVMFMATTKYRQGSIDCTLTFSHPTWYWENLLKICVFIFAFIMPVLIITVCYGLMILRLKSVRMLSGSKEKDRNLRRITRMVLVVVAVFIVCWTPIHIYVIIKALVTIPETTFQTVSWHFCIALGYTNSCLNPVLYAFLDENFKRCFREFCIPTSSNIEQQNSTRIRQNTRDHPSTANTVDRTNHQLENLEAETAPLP

Which results are given for `C[N+]1(COP(=O)(O)O)CCC23CCCCC2C1Cc1ccc(O)cc13` (stereo not drawn) [N-phosphonooxymethyl levorphanol, N-Phosphonooxymethyl Levorphanol]?
IC50 (human mu receptor): 14 nM; Ki (human mu receptor; human mu receptor, same assay as IC50, read-out: inhibition constant, Ki): 5.7 nM; Percentage of N-phosphonooxymethyl levorphanol remaining ([1]; pH 1.2 PBS, 0 hours): 100.0; Percentage of N-phosphonooxymethyl levorphanol remaining ([1]; pH 1.2 PBS, 0.5 hours): 111.5; Percentage of N-phosphonooxymethyl levorphanol remaining ([1]; pH 1.2 PBS, 1 hour): 104.4; Percentage of N-phosphonooxymethyl levorphanol remaining ([1]; pH 1.2 PBS, 3 hours): 110.9; Percentage of N-phosphonooxymethyl levorphanol remaining ([1]; pH 1.2 PBS, 5 hours): 111.1; Percentage of N-phosphonooxymethyl levorphanol remaining ([1]; pH 1.2 PBS, 23 hours): 110.9; Percentage of N-phosphonooxymethyl levorphanol remaining ([1]; pH 6 PBS, 0 hours): 100.0; Percentage of N-phosphonooxymethyl levorphanol remaining ([1]; pH 6 PBS, 0.5 hours): 101.4; Percentage of N-phosphonooxymethyl levorphanol remaining ([1]; pH 6 PBS, 1 hour): 102.3; Percentage of N-phosphonooxymethyl levorphanol remaining ([1]; pH 6 PBS, 3 hours): 104.3; Percentage of N-phosphonooxymethyl levorphanol remaining ([1]; pH 6 PBS, 5 hours): 104.3; Percentage of N-phosphonooxymethyl levorphanol remaining ([1]; pH 6 PBS, 22 hours): 108.0; Percentage of N-phosphonooxymethyl levorphanol remaining ([1]; pH 8 PBS, 0 hours): 100.0; Percentage of N-phosphonooxymethyl levorphanol remaining ([1]; pH 8 PBS, 0.5 hours): 100.6; Percentage of N-phosphonooxymethyl levorphanol remaining ([1]; pH 8 PBS, 1 hour): 100.3; Percentage of N-phosphonooxymethyl levorphanol remaining ([1]; pH 8 PBS, 3.5 hours): 99.8; Percentage of N-phosphonooxymethyl levorphanol remaining ([1]; pH 8 PBS, 6 hours): 100.5; Percentage of N-phosphonooxymethyl levorphanol remaining ([1]; pH 8 PBS, 24 hours): 103.7; Solubility in PBS at pH 8 [2]: approximately 137 mg/mL; solubility [2]: ~137 mg/mL; N-phosphonooxymethyl levorphanol remaining ([3]; alkaline phosphatase, after 30 minutes): no measurable amounts; share of total peak area that is N-phosphonooxymethyl levorphanol ([3]; alkaline phosphatase, time zero): 1.4%; time to hydrolyze to levorphanol in the presence of alkaline phosphatase ([3]; pH 8, 40 units AP per mg): ≤ 30 min

Which results are given for `CN1CC[C@]23CCCC[C@H]2[C@H]1Cc1ccc(O)cc13` [levorphanol, Levorphanol, reference compound]?
Solubility in PBS at pH 8 [2]: less than 1 mg/mL; solubility [2]: < 1 mg/mL

— patent US20080318905A1, “Prodrugs and methods of making and using the same” (priority 2006, published 2008)
